Test results as given in patent US11090247B2, “Compositions for protecting the skin from heavy metals and formaldehyde” (FNG RESEARCH CO., LTD., priority 2016, dated 2021).

How the values were obtained:
[1] = Removal test of heavy metals of active ingredients (pig skin, ICP-MS): Cu; settings: contaminated pig skin
Experimental: (§1) (1) Preparation of Heavy Metal Contamination Sources and Pig Skin Samples
(§2) A pig was slaughtered, flayed and the bristle was shaved. The pig skin was cut to prepare 5*5 cm size of skin samples respectively.
(§3) The said skin samples were cleanly wiped with wet gauze, and then, added to 50 ml of methanol and extracted by shaking with ultrasonic for 60 min. 50 ml of methanol was further added and mixed. The pig skin samples were removed from the extracted solutions to prepare the test solutions.
(§4) The test solutions were analyzed for heavy metal components using an inductively coupled plasma mass spectrometer (ICP-MS, Xseries™ 2, Thermo Fisher Scientific, UK).

[2] = Removal test of heavy metals of active ingredients (pig skin, ICP-MS): Pb; settings: contaminated pig skin
Experimental: as §1, §2, §3, §4

[3] = Removal test of heavy metals of active ingredients (pig skin, ICP-MS): Cd; settings: contaminated pig skin
Experimental: as §1, §2, §3, §4

human skin = assay: Skin irritation test of active ingredient (patch method, CTFA guidelines); format: in vivo; design: key to Degree of irritation: 0–0.1 none, 0.11–0.3 weak, 0.31–0.5 moderate, ≥0.51 strong irritation; settings: 20 people, patch 24 hours; for Test result(number of subject) (+): (+): Apparent reddening than periphery; for Test result(number of subject) (++): (++): More reddened and swollen than periphery; for Test result(number of subject) (±): (±): slightly reddish than the periphery; for Test result(number of subject) (−): (−): No erythema or particularly no symptoms
Experimental: A total of 20 people (10 men and 10 women in their 20 s and 30 s) were tested for skin irritation using the patch method according to the guidelines of CTFA (The Cosmetic, Toiletry & Fragrance Association, Inc. Washington, D.C.).
A filter paper disk was placed in an 8 mm diameter, 10 panels of pin chamber.
After 24 hours, the pin chamber was removed, and skin conditions were visually observed.
[Criteria for Skin Irritation]
(−): No erythema or particularly no symptoms; (±): slightly reddish than the periphery; (+): Apparent reddening than periphery; (++): More reddened and swollen than periphery.
[Grade for Skin Irritation]
Degree of irritation 0-0.1: Grade I (unstimulated);
Degree of irritation 0.11-0.3: Grade II (weakly stimulated);
Degree of irritation 0.31-0.5: Grade III (moderately stimulated);
Degree of irritation 0.51 or more: Grade IV (strongly stimulated)

[4] = Formaldehyde removing ability test (GC); settings: 2.0% formaldehyde solution; for Area (mAU*min) 30 min: formaldehyde GC area after 30 min; for Area (mAU*min) 30 min / Area (mAU*min) 180 min: 3 molar equivalents, room temperature; for Area (mAU*min) 180 min: formaldehyde GC area after 180 min; for Area (mAU*min) Initial: formaldehyde GC area, initial state, 3 molar equivalents of compound

| Compound | Removal of Heavy metals Cu (%) ([1]; 0.1 wt % aqueous solution) | Removal of Heavy metals Cu (%) ([1]; 0.5 wt % aqueous solution) | Removal of Heavy metals Cu (%) ([1]; 1.0 wt % aqueous solution) | Removal of Heavy metals Pb (%) ([2]; 0.1 wt % aqueous solution) | Removal of Heavy metals Pb (%) ([2]; 0.5 wt % aqueous solution) | Removal of Heavy metals Pb (%) ([2]; 1.0 wt % aqueous solution) | Removal of Heavy metals Cd (%) ([3]; 0.1 wt % aqueous solution) | Removal of Heavy metals Cd (%) ([3]; 0.5 wt % aqueous solution) | Removal of Heavy metals Cd (%) ([3]; 1.0 wt % aqueous solution) | Degree of irritation (human skin; 0.1 wt %) | Grade (human skin; 0.1 wt %) | Test result(number of subject) (+) (human skin; 0.1 wt %) | Test result(number of subject) (++) (human skin; 0.1 wt %) | Test result(number of subject) (±) (human skin; 0.1 wt %) | Test result(number of subject) (−) (human skin; 0.1 wt %) | Degree of irritation (human skin; 0.5 wt %) | Grade (human skin; 0.5 wt %) | Test result(number of subject) (+) (human skin; 0.5 wt %) | Test result(number of subject) (++) (human skin; 0.5 wt %) | Test result(number of subject) (±) (human skin; 0.5 wt %) | other results |
| --- | --- | --- | --- | --- | --- | --- | --- | --- | --- | --- | --- | --- | --- | --- | --- | --- | --- | --- | --- | --- | --- |
| O=C(O)CN(CCN(CC(=O)O)CC(=O)O)CC(=O)O [1(EDTA), Ethylenediaminetetraacetic acid, reference compound] | 86.5% | 88.6% | 89.2% | 84.3% | 88.3% | 89.6% | 82.3% | 87.3% | 88.3% |  |  |  |  |  |  |  |  |  |  |  |  |
| C1CNCCNCCNCCN1 [Cyclen, 1,4,7,10-tetraazacyclododecane] | 93.1% | 96.6% | 97.8% | 91.7% | 93.7% | 94.3% | 88.6% | 91.1% | 91.4% | 0 | I (Degree of irritation 0-0.1: Grade I (unstimulated)) | 0 | 0 | 0 | 20 | 0 | I (Degree of irritation 0-0.1: Grade I (unstimulated)) | 0 | 0 | 0 | Test result(number of subject) (−) (human skin; 0.5 wt %): 20; Degree of irritation (human skin; 1.0 wt %): 0.15; Grade (human skin; 1.0 wt %): II (Degree of irritation 0.11-0.3: Grade II (weakly stimulated)); Test result(number of subject) (+) (human skin; 1.0 wt %): 1; Test result(number of subject) (++) (human skin; 1.0 wt %): 0; Test result(number of subject) (±) (human skin; 1.0 wt %): 1; Test result(number of subject) (−) (human skin; 1.0 wt %): 18; Area (mAU*min) 30 min [4]: 0.181 mAU*min; Area (mAU*min) 180 min [4]: 0 mAU*min; Area (mAU*min) Initial [4]: 0.305 mAU*min |
| O=C(O)CN(CCN(CCN(CC(=O)O)CC(=O)O)CC(=O)O)CCN(CC(=O)O)CC(=O)O [Embodiment 1, 3,6,9,12-tetrakis(carboxymethyl)-3,6,9,12-tetraazatetradecanedioic acid] | 95.2% | 97.3% | 97.5% | 91.1% | 92.0% | 92.1% | 91.0% | 93.0% | 94.1% | 0 | I (Degree of irritation 0-0.1: Grade I (unstimulated)) | 0 | 0 | 0 | 20 | 0.05 | I (Degree of irritation 0-0.1: Grade I (unstimulated)) | 0 | 0 | 1 | Test result(number of subject) (−) (human skin; 0.5 wt %): 19; Degree of irritation (human skin; 1.0 wt %): 0.20; Grade (human skin; 1.0 wt %): II (Degree of irritation 0.11-0.3: Grade II (weakly stimulated)); Test result(number of subject) (+) (human skin; 1.0 wt %): 0; Test result(number of subject) (++) (human skin; 1.0 wt %): 0; Test result(number of subject) (±) (human skin; 1.0 wt %): 4; Test result(number of subject) (−) (human skin; 1.0 wt %): 16; Area (mAU*min) 30 min [4]: 0.170 mAU*min; Area (mAU*min) 180 min [4]: 0 mAU*min; Area (mAU*min) Initial [4]: 0.305 mAU*min |
| O=C(O)c1ccc(N(CCN(CCN(c2ccc(C(=O)O)cc2)c2ccc(C(=O)O)cc2)c2ccc(C(=O)O)cc2)CCN(c2ccc(C(=O)O)cc2)c2ccc(C(=O)O)cc2)cc1 [Embodiment 2, 4,4′,4″,4′″-(((ethane-1,2-diylbis((4-carboxyphenyl)azanediyl))bis(ethane-2,1-diyl))bis(azanetriyl))tetrabenzoic acid] | 93.5% | 95.8% | 96.9% | 86.4% | 88.6% | 89.0% | 87.3% | 89.7% | 90.5% | 0 | I (Degree of irritation 0-0.1: Grade I (unstimulated)) | 0 | 0 | 0 | 20 | 0 | I (Degree of irritation 0-0.1: Grade I (unstimulated)) | 0 | 0 | 0 | Test result(number of subject) (−) (human skin; 0.5 wt %): 20; Degree of irritation (human skin; 1.0 wt %): 0.05; Grade (human skin; 1.0 wt %): I (Degree of irritation 0-0.1: Grade I (unstimulated)); Test result(number of subject) (+) (human skin; 1.0 wt %): 0; Test result(number of subject) (++) (human skin; 1.0 wt %): 0; Test result(number of subject) (±) (human skin; 1.0 wt %): 1; Test result(number of subject) (−) (human skin; 1.0 wt %): 19; Area (mAU*min) 30 min [4]: 0.168 mAU*min; Area (mAU*min) 180 min [4]: 0 mAU*min; Area (mAU*min) Initial [4]: 0.305 mAU*min |
